What follows are molecules tested against T1, Menin/MLL (terbium chelate-labeled menin, FITC-MBM1 peptide) (Homo sapiens, UniProt O00255, T541A) (assay: Menin/MLL homogenous time-resolved fluorescence (HTRF) assay). Conditions: averaged values over all measurements; read-out: Menin HTRF assay (IC50).
T1 construct: Menin (a.a. 1-610-6×his tag) was labeled with terbium cryptate as follows
T1 sequence (O00255 with tags, fused parts or gaps T541A): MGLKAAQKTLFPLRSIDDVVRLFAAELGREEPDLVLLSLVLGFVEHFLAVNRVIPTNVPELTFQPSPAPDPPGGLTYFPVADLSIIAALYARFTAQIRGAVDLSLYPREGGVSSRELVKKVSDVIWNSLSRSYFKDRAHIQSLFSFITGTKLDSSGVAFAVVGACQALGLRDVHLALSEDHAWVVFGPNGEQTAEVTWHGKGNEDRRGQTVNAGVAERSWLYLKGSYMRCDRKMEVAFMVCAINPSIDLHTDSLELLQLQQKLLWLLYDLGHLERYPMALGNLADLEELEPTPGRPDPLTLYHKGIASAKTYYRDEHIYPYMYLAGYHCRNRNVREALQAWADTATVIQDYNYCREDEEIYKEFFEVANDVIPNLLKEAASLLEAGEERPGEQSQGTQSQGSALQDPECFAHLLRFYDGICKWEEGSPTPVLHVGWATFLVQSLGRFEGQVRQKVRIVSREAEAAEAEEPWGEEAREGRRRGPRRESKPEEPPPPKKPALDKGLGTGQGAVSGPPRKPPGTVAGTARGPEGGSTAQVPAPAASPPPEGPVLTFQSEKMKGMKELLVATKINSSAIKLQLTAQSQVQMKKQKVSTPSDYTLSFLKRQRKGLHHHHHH
Assay type: binding
Procedure: 3) Menin/MLL Homogenous Time-Resolved Fluorescence (HTRF) Assay
To an untreated, white 384-well microtiter plate was added 40 nL 200× test compound in DMSO and 4 μL 2× terbium chelate-labeled menin (vide infra for preparation) in assay buffer (40 mM Tris-HCl, pH 7.5, 50 mM NaCl, 1 mM DTT and 0.05% Pluronic F-127). After incubation of test compound and terbium chelate-labeled menin for 5 min at ambient temperature, 4 μL 2×FITC-MBM1 peptide (FITC-β-alanine-SARWRFPARPGT-NH2) in assay buffer was added, the microtiter plate centrifuged at 1000 rpm for 1 min and the assay mixtures incubated for 15 min at ambient temperature. The relative amount of menin⋅FITC-MBM1 complex present in an assay mixture is determined by measuring the homogenous time-resolved fluorescence (HTRF) of the terbium/FITC donor/acceptor fluorophore pair using a BMG Pherastar plate reader (ex. 337 nm/terbium em. 490 nm/FITC em. 520 nm) at ambient temperature. The degree of fluorescence resonance energy transfer (the HTRF value) is expressed as the ratio of the fluorescence emission intensities of the FITC and terbium fluorophores (F^em 520 nm/F^em 490 nm). The final concentrations of reagents in the binding assay are 100 pM terbium chelate-labeled menin, 75 nM FITC-MBM1 peptide and 0.5% DMSO in assay buffer. Dose-response titrations of test compounds are conducted using an 11 point, three-fold serial dilution scheme, starting at 31 μM.
Compound potencies were determined by first calculating % inhibition at each compound concentration according to equation 1: % inhibition=((HC−LC)−(HTRF^compound−LC))/(HC−LC))*100 (Eqn 1)
Where LC and HC are the HTRF values of the assay in the presence or absence of a saturating concentration of a compound that competes with FITC-MBM1 for binding to menin, and HTRF^compound is the measured HTRF value in the presence of the test compound. HC and LC HTRF values represent an average of at least 16 replicates per plate.
Where Bottom and Top are the lower and upper asymptotes of the dose-response curve, respectively, IC50 is the concentration of compound that yields 50% inhibition of signal and h is the Hill coefficient.
Preparation of Terbium cryptate labeling of Menin: Menin (a.a. 1-610-6×his tag) was labeled with terbium cryptate as follows. 2 mg of Menin was buffer exchanged into 1× phosphate buffered saline. 16 uM Menin was incubated with 4-fold molar excess NHS-terbium cryptate (Cisbio Bioassays, Bedford, Mass.) for 2 hours at room temperature. The labeled protein was purified away from free label by running the reaction over a Superdex 200 Increase 10/300 GL column at 0.75 ml/min. Peak fractions were collected, aliquoted and frozen at −80° C.

IC50	SMILES
492 nM	O=c1cc(CN2CC[C@@H]3CN(c4ncnc5sc(CC(F)(F)F)cc45)C[C@@H]3C2)cc[nH]1 (single isomer, unassigned) [Compound 66]
14 nM	O=C(C1CCCOC1)N1CCC(CN2CC[C@@H]3CN(c4ncnc5sc(CC(F)(F)F)cc45)C[C@@H]3C2)CC1 (single isomer, unassigned) [Compound 92]
546 nM	CC(C)CN1CCC2CN(c3ncnc4sc(CC(F)(F)F)cc34)CCC21 (centres unmarked) [Compound 25]
267 nM	COc1ncc(CN2CC[C@@H]3CN(c4ncnc5sc(CC(F)(F)F)cc45)C[C@@H]3C2)cn1 (single isomer, unassigned) [Compound 88]
20 nM	Cn1cc(CN2CC[C@@H]3CN(c4ncnc5sc(CC(F)(F)F)cc45)C[C@@H]3C2)cn1 (single isomer, unassigned) [Compound 87]
933 nM	O=C([C@@H]1CCCN1)N1CC[C@@H]2CN(c3ncnc4sc(CC(F)(F)F)cc34)C[C@@H]2C1 [Compound 80]
10 nM	CNc1ccc(CN2CC[C@@H]3CN(c4ncnc5sc(CC(F)(F)F)cc45)C[C@@H]3C2)cn1 (single isomer, unassigned) [Compound 106]
252 nM	FC(F)(F)Cc1cc2c(N3C[C@H]4CCN(Cc5cnccn5)C[C@H]4C3)ncnc2s1 (single isomer, unassigned) [Compound 53]
281 nM	FC(F)(F)Cc1cc2c(N3C[C@H]4CCN(Cc5ccncn5)C[C@H]4C3)ncnc2s1 (single isomer, unassigned) [Compound 50]
8330 nM	Cn1cc(CN2C(=O)C[C@H]3CCN(c4ncnc5sc(CC(F)(F)F)cc45)C[C@H]32)cn1 (single isomer, unassigned) [Compound 35A]
201 nM	CC(C)[C@H](c1cnn(C)c1)N1CC[C@@H]2CN(c3ncnc4sc(CC(F)(F)F)cc34)C[C@@H]2C1 (single isomer, unassigned) [Compound 77A]
985 nM	O=C([C@@H]1CCCN1)N1CC[C@H]2CN(c3ncnc4sc(CC(F)(F)F)cc34)C[C@H]2C1 [Compound 83]
1320 nM	CC(C)[C@@H](c1cnn(C)c1)N1CC[C@H]2CN(c3ncnc4sc(CC(F)(F)F)cc34)C[C@H]2C1 (single isomer, unassigned) [Compound 78B]
~6910 nM	Cn1cc(CN2CC[C@H]3CN(c4ncnc5sc(CC(F)(F)F)cc45)C[C@H]32)cn1 [Compound 27D]
1620 nM	CC(C)[C@@H](c1cnn(C)c1)N1CC[C@@H]2CN(c3ncnc4sc(CC(F)(F)F)cc34)C[C@@H]2C1 (single isomer, unassigned) [Compound 77B]
985 nM	Cn1cc(CN2CC[C@@H]3CN(c4ncnc5sc(CC(F)(F)F)cc45)C[C@@H]3C2)cn1 (single isomer, unassigned) [Compound 71A]
4530 nM	Cn1cc(CN2CC[C@@H]3CN(c4ncnc5sc(CC(F)(F)F)cc45)C[C@@H]32)cn1 [Compound 27C]
504 nM	FC(F)(F)Cc1cc2c(N3C[C@H]4CCN(CC5(F)CCOCC5)C[C@H]4C3)ncnc2s1 (single isomer, unassigned) [Compound 98]
> 25000 nM	Cn1cc(CN2C(=O)C[C@@H]3CCN(c4ncnc5sc(CC(F)(F)F)cc45)C[C@@H]32)cn1 (single isomer, unassigned) [Compound 35B]
317 nM	Cc1ncc(CN2CC[C@@H]3CN(c4ncnc5sc(CC(F)(F)F)cc45)C[C@@H]3C2)cn1 (single isomer, unassigned) [Compound 90]
446 nM	FC(F)(F)Cc1cc2c(N3C[C@H]4CCN(CCc5ccccc5)C[C@H]4C3)ncnc2s1 (single isomer, unassigned) [Compound 48]
714 nM	CC(C)(C)OC(=O)N1CCC(O)(CN2CC[C@@H]3CN(c4ncnc5sc(CC(F)(F)F)cc45)C[C@@H]3C2)CC1 (single isomer, unassigned) [Compound 109]
955 nM	C[C@H](c1cnn(C)c1)N1CC[C@@H]2CN(c3ncnc4sc(CC(F)(F)F)cc34)C[C@@H]2C1 (single isomer, unassigned) [Compound 79A]
2460 nM	FC(F)(F)Cc1cc2c(N3C[C@H]4CCN(CC(F)(F)F)C[C@H]4C3)ncnc2s1 (single isomer, unassigned) [Compound 73]
991 nM	FC(F)(F)Cc1cc2c(N3C[C@H]4CN(Cc5cccnc5)CC[C@H]4C3)ncnc2s1 (single isomer, unassigned) [Compound 72]
964 nM	C[C@@H](c1cnn(C)c1)N1CC[C@@H]2CN(c3ncnc4sc(CC(F)(F)F)cc34)C[C@@H]2C1 (single isomer, unassigned) [Compound 79B]
375 nM	FC(F)(F)Cc1cc2c(N3C[C@H]4CCN(Cc5cncnc5)C[C@H]4C3)ncnc2s1 (single isomer, unassigned) [Compound 104]
2220 nM	FC(F)CN1CC[C@@H]2CN(c3ncnc4sc(CC(F)(F)F)cc34)C[C@@H]2C1 (single isomer, unassigned) [Compound 74]
520 nM	CC(C)[C@H](c1cnn(C)c1)N1CC[C@H]2CN(c3ncnc4sc(CC(F)(F)F)cc34)C[C@H]2C1 (single isomer, unassigned) [Compound 78A]

Same assay, conditions: individual measurements (not averaged); read-out: (3) Menin HTRF assay (IC50 (nM))

IC50	SMILES
244 nM	OCCn1cc(CN2CCC3CN(c4ncnc5sc(CC(F)(F)F)cc45)CCC32)cn1 (centres unmarked) [Compound 24]

Each molecule was assayed on MV-4-11 (assay: Proliferation assay (spheroid assay) MV-4-11). Conditions: Homo sapiens, MV4-11, MV-4-11; averaged values over all measurements; read-out: Spheroid assay MV-4-11 (IC50).
Assay type: cell-based, human
Procedure: The anti-proliferative effect of menin/MLL protein/protein interaction inhibitor test compounds was assessed in human leukemia cell lines. The cell lines MV-4-11 and MOLM14 harbor MLL translocations and express the MLL fusion proteins MLL-AF4 and MLL-AF9, respectively, as well as the wildtype protein from the second allele. […] K562 and KG1 were used as a control cell lines containing two MLL wildtype alleles in order to exclude compounds that display general cytotoxic effects.
MV-4-11 and MOLM14 were cultured in RPMI-1640 (Sigma Aldrich) supplemented with 10% fetal bovine serum (HyClone), 2 mM L-glutamine (Sigma Aldrich) and 50 μg/ml gentamycin (Gibco). K562 were propagated in RPMI-1640 (Sigma Aldrich) supplemented with 20% fetal bovine serum (HyClone), 2 mM L-glutamine (Sigma Aldrich) and 50 μg/ml gentamycin (Gibco). KG1 were cultured in Iscove's MDM (Gibco) supplemented with 20% fetal bovine serum (HyClone), 2 mM L-glutamine (Sigma Aldrich) and 50 μg/ml gentamycin (Gibco).
In order to assess the anti-proliferative effects, 1,500 MV-4-11, 300 MOLM14, 750 K562 or 1,300 KG1 cells were seeded in 200 μl media per well in 96-well round bottom, ultra-low attachment plates (Costar, catalogue number 7007). Cell seeding numbers were chosen based on growth curves to ensure linear growth throughout the experiment. Test compounds were added at different concentrations and the DMSO content was normalized to 0.3%. Cells were incubated for 8 d at 37° C. and 5% CO2. Spheroid like growth was monitored in real-time by live-cell imaging (IncuCyteZOOM, Essenbio, 4× objective) acquiring one image every four hours for 8 d. Confluence (%) as a measure of spheroid size was determined using an integrated analysis tool.
In order to determine the cumulative effect of the test compounds over time, the area under the curve (AUC) in a plot of confluence against time was calculated. Confluence at the beginning of the experiment (t=0) was used as baseline for the AUC calculation.
Absolute IC50 values were calculated according to the following procedure: % Control=(AUC sample/AUC control)*100
AUC control=mean AUC of control values (cells without compound/DMSO as vehicle control)
A non-linear curve fit was applied using the least squares (ordinary) fit method to the plot of % control versus compound concentration. Based on this, the absolute IC50 value (half maximal inhibitory concentration of the test compound causing an anti-proliferative effect of 50% relative to the vehicle control) was calculated.

IC50	SMILES
0.45 µM	O=C(C1CCCOC1)N1CCC(CN2CC[C@@H]3CN(c4ncnc5sc(CC(F)(F)F)cc45)C[C@@H]3C2)CC1 (single isomer, unassigned) [Compound 92]
0.19 µM	CNc1ccc(CN2CC[C@@H]3CN(c4ncnc5sc(CC(F)(F)F)cc45)C[C@@H]3C2)cn1 (single isomer, unassigned) [Compound 106]

Source: patent US10611778B2, “Fused bicyclic inhibitors of menin-MLL interaction” (Janssen Pharmaceutica NV, priority 2016, dated 2020)
